{"source": "patent US20210346357A1", "about": "(priority 2020, published 2021)", "key": {"[1]": {"system": "TSLP-evoked TARC release in human peripheral blood mononuclear cells", "experiment": "Inhibition of TSLP-evoked TARC release in human PBMC", "assay_type": "cell-based", "conditions": "PBMC from 3 to 5 donors, TSLP 10 ng/mL, 48 hours, read-out: pIC50 ± st. dev., inhibition of TSLP-evoked TARC release (converted)"}, "[2]": {"target": "Abl1 (Homo sapiens, UniProt P00519)", "sequence (P00519 whole entry)": "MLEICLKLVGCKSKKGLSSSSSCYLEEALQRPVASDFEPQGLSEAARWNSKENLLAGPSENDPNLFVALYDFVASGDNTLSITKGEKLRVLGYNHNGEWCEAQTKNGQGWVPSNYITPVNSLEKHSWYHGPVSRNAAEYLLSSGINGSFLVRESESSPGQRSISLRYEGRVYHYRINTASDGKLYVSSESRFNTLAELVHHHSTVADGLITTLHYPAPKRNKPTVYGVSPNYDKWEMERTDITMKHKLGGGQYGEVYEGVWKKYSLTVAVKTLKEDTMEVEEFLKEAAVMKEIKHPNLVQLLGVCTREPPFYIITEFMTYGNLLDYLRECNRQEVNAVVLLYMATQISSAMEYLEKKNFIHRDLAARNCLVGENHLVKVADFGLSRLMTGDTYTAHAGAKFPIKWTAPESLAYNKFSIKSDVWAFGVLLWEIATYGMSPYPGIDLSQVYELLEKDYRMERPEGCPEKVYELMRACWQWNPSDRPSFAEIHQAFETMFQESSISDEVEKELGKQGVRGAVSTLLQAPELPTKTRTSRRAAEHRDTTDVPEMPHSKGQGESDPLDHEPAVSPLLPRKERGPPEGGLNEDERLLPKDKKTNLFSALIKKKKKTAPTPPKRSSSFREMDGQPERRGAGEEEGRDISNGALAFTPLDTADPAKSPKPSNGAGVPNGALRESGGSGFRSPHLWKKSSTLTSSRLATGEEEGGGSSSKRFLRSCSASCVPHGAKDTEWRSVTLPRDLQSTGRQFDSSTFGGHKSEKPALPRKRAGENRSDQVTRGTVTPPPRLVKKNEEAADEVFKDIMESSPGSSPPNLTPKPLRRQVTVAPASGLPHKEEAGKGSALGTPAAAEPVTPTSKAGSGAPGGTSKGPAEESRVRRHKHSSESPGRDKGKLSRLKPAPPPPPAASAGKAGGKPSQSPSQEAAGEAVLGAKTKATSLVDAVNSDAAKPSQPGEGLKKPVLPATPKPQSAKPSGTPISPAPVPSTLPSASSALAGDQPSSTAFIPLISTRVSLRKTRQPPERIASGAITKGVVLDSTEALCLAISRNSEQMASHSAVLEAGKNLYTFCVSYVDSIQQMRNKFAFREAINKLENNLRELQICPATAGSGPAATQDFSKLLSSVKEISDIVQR", "experiment": "Biochemical ABL1 kinase assay (33P-ATP)", "conditions": "at 1 μM; ATP 10 μM"}, "[3]": {"target": "Abl2 (Homo sapiens, UniProt P42684)", "sequence (P42684 whole entry)": "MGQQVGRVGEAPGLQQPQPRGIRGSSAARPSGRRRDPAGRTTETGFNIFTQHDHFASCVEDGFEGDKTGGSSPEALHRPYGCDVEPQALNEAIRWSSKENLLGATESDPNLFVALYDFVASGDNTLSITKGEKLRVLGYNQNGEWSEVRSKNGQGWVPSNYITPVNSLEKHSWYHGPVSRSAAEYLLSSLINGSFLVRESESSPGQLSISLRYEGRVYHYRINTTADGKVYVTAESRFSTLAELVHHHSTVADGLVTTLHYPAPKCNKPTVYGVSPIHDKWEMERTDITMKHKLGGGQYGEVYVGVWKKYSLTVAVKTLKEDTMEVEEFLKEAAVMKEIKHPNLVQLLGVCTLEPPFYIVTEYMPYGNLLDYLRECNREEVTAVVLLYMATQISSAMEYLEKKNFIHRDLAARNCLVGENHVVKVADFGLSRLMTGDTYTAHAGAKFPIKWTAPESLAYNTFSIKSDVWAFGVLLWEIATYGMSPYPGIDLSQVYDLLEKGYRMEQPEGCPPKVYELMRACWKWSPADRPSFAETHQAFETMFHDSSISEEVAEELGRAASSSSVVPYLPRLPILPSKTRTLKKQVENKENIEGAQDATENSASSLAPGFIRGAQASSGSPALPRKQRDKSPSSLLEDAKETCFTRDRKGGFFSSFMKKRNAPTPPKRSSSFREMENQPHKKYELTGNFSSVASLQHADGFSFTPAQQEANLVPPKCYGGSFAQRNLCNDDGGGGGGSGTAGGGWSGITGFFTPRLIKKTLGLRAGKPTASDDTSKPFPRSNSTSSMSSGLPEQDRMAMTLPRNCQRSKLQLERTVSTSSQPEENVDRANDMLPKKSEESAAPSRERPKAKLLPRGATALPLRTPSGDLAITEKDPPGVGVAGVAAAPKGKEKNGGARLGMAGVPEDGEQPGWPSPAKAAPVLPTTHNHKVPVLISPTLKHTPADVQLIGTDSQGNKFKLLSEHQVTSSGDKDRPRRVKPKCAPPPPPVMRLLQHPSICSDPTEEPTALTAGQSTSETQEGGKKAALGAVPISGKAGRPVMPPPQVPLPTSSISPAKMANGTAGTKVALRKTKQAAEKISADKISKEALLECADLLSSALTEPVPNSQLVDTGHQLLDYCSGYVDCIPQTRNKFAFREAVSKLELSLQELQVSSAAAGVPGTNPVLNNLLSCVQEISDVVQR", "experiment": "biochemical", "conditions": "ATP 10 μM"}, "[4]": {"system": "IL-13-induced STAT6 phosphorylation in the human bronchial epithelial cell line BEAS-2B", "experiment": "IL-13-induced STAT6 phosphorylation in BEAS-2B cells", "assay_type": "cell-based"}, "[5]": {"system": "Symptomatic Acute Lung Injury Associated with COVID-19", "experiment": "Phase 2 study Part 1, inhaled compound 1 in hospitalized COVID-19 patients", "conditions": "COVID-19 patients; for Modified Borg Dyspnea Score, Baseline, Mean: baseline value"}, "[6]": {"conditions": "1 mg, matched D1 and D7 samples"}}, "note": "Where two headings read alike, the source gives them in different places."}
{"smiles": "CCc1cc(O)ccc1-c1ccc2c(-c3nc4c([nH]3)CN(C(C)C)[C@H](C(=O)N3CC(N(C)C)C3)C4)n[nH]c2c1", "note": "[Compound 1, (S)-(3-(dimethylamino)azetidin-1-yl)(2-(6-(2-ethyl-4-hydroxyphenyl)-1H-indazol-3-yl)-5-isopropyl-4,5,6,7-tetrahydro-3H-imidazo[4,5-c]pyridin-6-yl)methanone]", "values": [{"measurement": "IC50", "setting": "[1]", "result": 63.1, "unit": "nM"}, {"measurement": "inhibition at 1 µM", "setting": "[2]", "result": 90, "unit": "%"}, {"measurement": "IC50", "setting": "[3]", "result": 15, "unit": "nM"}, {"measurement": "IC50", "setting": "[4]; JAK IC50 divided by the fraction unbound, read-out: binding-corrected JAK IC50", "result": 0.362, "unit": "µg/mL"}, {"measurement": "IC50", "setting": "[4]; obtained from pIC50 of 7.9, based on a MW of 545.7, read-out: JAK IC50", "result": 0.0069, "unit": "µg/mL"}, {"measurement": "IC50", "setting": "[4]; read-out: pIC50 for IL-13-induced STAT6 phosphorylation (converted)", "result": 12.6, "unit": "nM"}, {"measurement": "exposures provided by the loading dose on Day 1", "setting": "[5]", "result": "consistent with pseudo steady-state"}, {"measurement": "Clinical Status at Day 28: 1-Not hospitalized, no limitations on activities, number", "setting": "[5]; 1 mg", "result": 5}, {"measurement": "Clinical Status at Day 28: 1-Not hospitalized, no limitations on activities, percent", "setting": "[5]; 1 mg", "result": 83.3, "unit": "%"}, {"measurement": "Clinical Status at Day 28: 2-Not hospitalized, but with limitations on activities and/or requiring home oxygen, number", "setting": "[5]; 1 mg", "result": 0}, {"measurement": "Clinical Status at Day 28: 3-Hospitalized, not requiring supplemental oxygen, and no longer requiring ongoing medical care, number", "setting": "[5]; 1 mg", "result": 0}, {"measurement": "Clinical Status at Day 28: 4-Hospitalized, not requiring supplemental oxygen, but requiring ongoing medical care, number", "setting": "[5]; 1 mg", "result": 0}, {"measurement": "Clinical Status at Day 28: 5-Hospitalized, requiring supplemental oxygen, number", "setting": "[5]; 1 mg", "result": 0}, {"measurement": "Clinical Status at Day 28: 6-Hospitalized, on non-invasive ventilation or high-flow oxygen devices, number", "setting": "[5]; 1 mg", "result": 0}, {"measurement": "Clinical Status at Day 28: 7-Hospitalized, on invasive mechanical ventilation or extracorporeal membrane oxygenation, number", "setting": "[5]; 1 mg", "result": 0}, {"measurement": "Clinical Status at Day 28: 8-Death, number", "setting": "[5]; 1 mg", "result": 1}, {"measurement": "Clinical Status at Day 28: 8-Death, percent", "setting": "[5]; 1 mg", "result": 16.7, "unit": "%"}, {"measurement": "Still in Hospital at Day 28, number", "setting": "[5]; 1 mg", "result": 0}, {"measurement": "Time to Hospital Discharge (Days) Median", "setting": "[5]; 1 mg", "result": 18.5, "unit": "days"}, {"measurement": "Modified Borg Dyspnea Score, Baseline, Mean", "setting": "[5]; 1 mg group", "result": 6.17}, {"measurement": "Modified Borg Dyspnea Score Change from Baseline, Mean", "setting": "[5]; 1 mg, Day 2", "result": 0.33}, {"measurement": "Modified Borg Dyspnea Score Change from Baseline, Mean", "setting": "[5]; 1 mg, Day 3", "result": "−0.33"}, {"measurement": "Modified Borg Dyspnea Score Change from Baseline, Mean", "setting": "[5]; 1 mg, Day 4", "result": "−0.83"}, {"measurement": "Modified Borg Dyspnea Score Change from Baseline, Mean", "setting": "[5]; 1 mg, Day 5", "result": "−1.17"}, {"measurement": "Modified Borg Dyspnea Score Change from Baseline, Mean", "setting": "[5]; 1 mg, Day 6", "result": "−1.33"}, {"measurement": "Hospital Discharge, number", "setting": "[5]; 1 mg, Day 7", "result": 0}, {"measurement": "Modified Borg Dyspnea Score Change from Baseline, Mean", "setting": "[5]; 1 mg, Day 7", "result": "−1.50"}, {"measurement": "Hospital Discharge, number", "setting": "[5]; 1 mg, Day 14", "result": 2}, {"measurement": "Hospital Discharge, percent", "setting": "[5]; 1 mg, Day 14", "result": 33.3, "unit": "%"}, {"measurement": "Hospital Discharge, number", "setting": "[5]; 1 mg, Day 21", "result": 3}, {"measurement": "Hospital Discharge, percent", "setting": "[5]; 1 mg, Day 21", "result": 50.0, "unit": "%"}, {"measurement": "# Subjects Respiratory Failure-Free, percent", "setting": "[5]; 1 mg, Day 28", "result": 83.3, "unit": "%"}, {"measurement": "Hospital Discharge, number", "setting": "[5]; 1 mg, Day 28", "result": 5}, {"measurement": "Hospital Discharge, percent", "setting": "[5]; 1 mg, Day 28", "result": 83.3, "unit": "%"}, {"measurement": "Proportion of Subjects Alive and Respiratory Failure-free", "setting": "[5]; 1 mg, Day 28", "result": 83.3, "unit": "%"}, {"measurement": "Proportion of Subjects Alive and Respiratory Failure-free, number", "setting": "[5]; 1 mg, Day 28", "result": 5}, {"measurement": "# Subjects Respiratory Failure-Free", "setting": "[5]; 1 mg, Day 28, number of subjects", "result": 5}, {"measurement": "IFN-γ, within-group percent difference in geometric mean from baseline", "setting": "[5]; [6]", "result": "−46.12", "unit": "%"}, {"measurement": "IL-6, within-group percent difference in geometric mean from baseline", "setting": "[5]; [6]", "result": 29.45, "unit": "%"}, {"measurement": "IL-8, within-group percent difference in geometric mean from baseline", "setting": "[5]; [6]", "result": "−16.78", "unit": "%"}, {"measurement": "IL-10, within-group percent difference in geometric mean from baseline", "setting": "[5]; [6]", "result": "−26.59", "unit": "%"}, {"measurement": "IP-10, within-group percent difference in geometric mean from baseline", "setting": "[5]; [6]", "result": "−20.65", "unit": "%"}, {"measurement": "MCP-1, within-group percent difference in geometric mean from baseline", "setting": "[5]; [6]", "result": 13.90, "unit": "%"}, {"measurement": "MDC, within-group percent difference in geometric mean from baseline", "setting": "[5]; [6]", "result": "−55.03", "unit": "%"}, {"measurement": "RAGE, within-group percent difference in geometric mean from baseline", "setting": "[5]; [6]", "result": "−14.22", "unit": "%"}, {"measurement": "TARC, within-group percent difference in geometric mean from baseline", "setting": "[5]; [6]", "result": "−57.21", "unit": "%"}, {"measurement": "hsCRP, within-group percent difference in geometric mean from baseline", "setting": "[5]; [6]", "result": "−34.85", "unit": "%"}, {"measurement": "Time to Hospital Discharge (Days) Mean ± SD", "setting": "[5]; 1 mg, still hospitalized or died = 28 days", "result": "18.83 ± 6.795", "unit": "days"}, {"measurement": "# Subjects Alive, percent", "setting": "[5]; 1 mg, through Day 28", "result": 83.3, "unit": "%"}, {"measurement": "Died (All-Cause Mortality), percent", "setting": "[5]; 1 mg, through Day 28", "result": 16.7, "unit": "%"}, {"measurement": "# Subjects Alive", "setting": "[5]; 1 mg, through Day 28, number of subjects", "result": 5}, {"measurement": "Clinical Status at Day 28: 1-Not hospitalized, no limitations on activities, number", "setting": "[5]; 3 mg", "result": 5}, {"measurement": "Clinical Status at Day 28: 1-Not hospitalized, no limitations on activities, percent", "setting": "[5]; 3 mg", "result": 83.3, "unit": "%"}, {"measurement": "Clinical Status at Day 28: 2-Not hospitalized, but with limitations on activities and/or requiring home oxygen, number", "setting": "[5]; 3 mg", "result": 0}, {"measurement": "Clinical Status at Day 28: 3-Hospitalized, not requiring supplemental oxygen, and no longer requiring ongoing medical care, number", "setting": "[5]; 3 mg", "result": 0}, {"measurement": "Clinical Status at Day 28: 4-Hospitalized, not requiring supplemental oxygen, but requiring ongoing medical care, number", "setting": "[5]; 3 mg", "result": 1}, {"measurement": "Clinical Status at Day 28: 4-Hospitalized, not requiring supplemental oxygen, but requiring ongoing medical care, percent", "setting": "[5]; 3 mg", "result": 16.7, "unit": "%"}, {"measurement": "Clinical Status at Day 28: 5-Hospitalized, requiring supplemental oxygen, number", "setting": "[5]; 3 mg", "result": 0}, {"measurement": "Clinical Status at Day 28: 6-Hospitalized, on non-invasive ventilation or high-flow oxygen devices, number", "setting": "[5]; 3 mg", "result": 0}, {"measurement": "Clinical Status at Day 28: 7-Hospitalized, on invasive mechanical ventilation or extracorporeal membrane oxygenation, number", "setting": "[5]; 3 mg", "result": 0}, {"measurement": "Clinical Status at Day 28: 8-Death, number", "setting": "[5]; 3 mg", "result": 0}, {"measurement": "Still in Hospital at Day 28, number", "setting": "[5]; 3 mg", "result": 0}, {"measurement": "Time to Hospital Discharge (Days) Median", "setting": "[5]; 3 mg", "result": 17.0, "unit": "days"}, {"measurement": "Modified Borg Dyspnea Score, Baseline, Mean", "setting": "[5]; 3 mg group", "result": 6.71}, {"measurement": "Modified Borg Dyspnea Score Change from Baseline, Mean", "setting": "[5]; 3 mg, Day 2", "result": "−0.43"}, {"measurement": "Modified Borg Dyspnea Score Change from Baseline, Mean", "setting": "[5]; 3 mg, Day 3", "result": "−1.00"}, {"measurement": "Modified Borg Dyspnea Score Change from Baseline, Mean", "setting": "[5]; 3 mg, Day 4", "result": "−0.50"}, {"measurement": "Modified Borg Dyspnea Score Change from Baseline, Mean", "setting": "[5]; 3 mg, Day 5", "result": "−1.20"}, {"measurement": "Modified Borg Dyspnea Score Change from Baseline, Mean", "setting": "[5]; 3 mg, Day 6", "result": "−1.20"}, {"measurement": "Hospital Discharge, number", "setting": "[5]; 3 mg, Day 7", "result": 1}, {"measurement": "Hospital Discharge, percent", "setting": "[5]; 3 mg, Day 7", "result": 14.3, "unit": "%"}, {"measurement": "Modified Borg Dyspnea Score Change from Baseline, Mean", "setting": "[5]; 3 mg, Day 7", "result": "−1.80"}, {"measurement": "Hospital Discharge, number", "setting": "[5]; 3 mg, Day 14", "result": 2}, {"measurement": "Hospital Discharge, percent", "setting": "[5]; 3 mg, Day 14", "result": 28.6, "unit": "%"}]}
